Laboratory results from ChEMBL document CHEMBL4619722, “Alanine scan-guided synthesis and biological evaluation of analogues of culicinin D, a potent anticancer peptaibol” (Bioorg Med Chem Lett, 2020).
Numbered stars: 1 amine (or outer) side, 2 acyl side, 3 side chain; on linkers, the order of the positions; unused ones are H or OH. Square brackets hold non-standard residues; d marks the D form. Peptide text beside a SMILES is read from it. * marks the point of attachment. ξ: configuration not given here. X1 = CCC(=O)C[C@H](O)C[C@@H](C)C[C@H](N[*:1])C(=O)[*:2]; Nva(5-pentanoyl) = CCCCC(=O)CCC[C@H](N)C(=O)O; NH((S)CH(Me)CH2NHC2H4OH) = C[C@@H](CNCCO)N*; Gly(octyl) = CCCCCCCC[C@H](N)C(=O)O; X2 = O=C([C@H](CCCCO)N[*:1])[*:2]; X3 = C[C@H](NC[C@H](C)N*)C(=O)O; Nle = CCCC[C@H](N)C(=O)O; Nva = CCC[C@H](N)C(=O)O; Aib = CC(C)(N)C(=O)O; Butyryl = CCCC(=O)*; ξP = O=C(O)C1CCCN1; βAla = NCCC(=O)O

Legend:
Type in all cases: functional, cell-based
[1] = system: SK-BR-3; test: Antiproliferative activity against human SKBR3 cells
[2] = system: MDA-MB-468; test: Antiproliferative activity against human MDA-MB-468 cells
[3] = system: NCI-H460; test: Antiproliferative activity against human NCI-H460 cells
[4] = system: T47D; test: Antiproliferative activity against human T47D cells

| Structure (SMILES) | IC50 [1] [µM] | IC50 [2] [µM] | IC50 [3] [µM] | IC50 [4] [µM] |
| --- | --- | --- | --- | --- |
| CCCCCCCC[C@H](NC(=O)C(C)(C)NC(=O)C(C)(C)NC(=O)[C@H](C[C@H](C)C[C@@H](O)CC(=O)CC)NC(=O)[C@@H]1CCCN1C(=O)CCC)C(=O)N[C@@H](CC(C)C)C(=O)NC(C)(C)C(=O)N[C@@H](CC(C)C)C(=O)NCCC(=O)N[C@@H](C)CNCCO (Butyryl-P[X1][Aib][Aib][Gly(octyl)]L[Aib]L[βAla]-{NH((S)CH(Me)CH2NHC2H4OH)}) | 0.025 | 0.004 | 0.008 | 0.003 |
| CCCC[C@H](NC(=O)C(C)(C)NC(=O)C(C)(C)NC(=O)[C@H](C[C@H](C)C[C@@H](O)CC(=O)CC)NC(=O)[C@@H]1CCCN1C(=O)CCC)C(=O)N[C@@H](CC(C)C)C(=O)NC(C)(C)C(=O)N[C@@H](CC(C)C)C(=O)NCCC(=O)N[C@@H](C)CNCCO (Butyryl-P[X1][Aib][Aib][Nle]L[Aib]L[βAla]-{NH((S)CH(Me)CH2NHC2H4OH)}) | > 1 | 0.09 | > 0.5 | 0.124 |
| CCCC(=O)N1CCC[C@H]1C(=O)N[C@@H](C[C@H](C)C[C@@H](O)CC(=O)CC)C(=O)NC(C)(C)C(=O)NC(C)(C)C(=O)N[C@@H](CCC)C(=O)N[C@@H](CC(C)C)C(=O)NC(C)(C)C(=O)N[C@@H](CC(C)C)C(=O)NCCC(=O)N[C@@H](C)CNCCO (Butyryl-P[X1][Aib][Aib][Nva]L[Aib]L[βAla]-{NH((S)CH(Me)CH2NHC2H4OH)}) | > 1 | 0.274 | > 1 | 0.42 |
| CCCCCCCC[C@H](NC(=O)C(C)(C)NC(=O)C(C)(C)NC(=O)[C@H](CCCCO)NC(=O)[C@@H]1CCCN1C(=O)CCC)C(=O)N[C@@H](CC(C)C)C(=O)NC(C)(C)C(=O)N[C@@H](CC(C)C)C(=O)NCCC(=O)N[C@@H](C)CNCCO (Butyryl-P[X2][Aib][Aib][Gly(octyl)]L[Aib]L[βAla]-{NH((S)CH(Me)CH2NHC2H4OH)}) | 0.27 | 0.039 | 0.045 | 0.049 |
| CCCCCCCC[C@H](NC(=O)C(C)(C)NC(=O)C(C)(C)NC(=O)[C@H](C)NC(=O)C1CCCN1C(=O)CCC)C(=O)N[C@@H](CC(C)C)C(=O)NC(C)(C)C(=O)N[C@@H](CC(C)C)C(=O)NCCC(=O)N[C@@H](C)CNCCO (stereo partly drawn) (Butyryl-[ξP]A[Aib][Aib][Gly(octyl)]L[Aib]L[βAla]-{NH((S)CH(Me)CH2NHC2H4OH)}) | 0.343 | 0.068 | 0.071 | 0.061 |
| CCCCCCCC[C@H](NC(=O)C(C)(C)NC(=O)[C@H](C)NC(=O)[C@H](CCCC(=O)CCCC)NC(=O)C1CCCN1C(=O)CCC)C(=O)N[C@@H](CC(C)C)C(=O)NC(C)(C)C(=O)N[C@@H](CC(C)C)C(=O)NCCC(=O)N[C@@H](C)CNCCO (stereo partly drawn) (Butyryl-[ξP][Nva(5-pentanoyl)]A[Aib][Gly(octyl)]L[Aib]L[βAla]-{NH((S)CH(Me)CH2NHC2H4OH)}) | 0.075 | 0.042 | 0.044 | 0.031 |
| CCCCCCCC[C@H](NC(=O)[C@H](C)NC(=O)C(C)(C)NC(=O)[C@H](CCCC(=O)CCCC)NC(=O)C1CCCN1C(=O)CCC)C(=O)N[C@@H](CC(C)C)C(=O)NC(C)(C)C(=O)N[C@@H](CC(C)C)C(=O)NCCC(=O)N[C@@H](C)CNCCO (stereo partly drawn) (Butyryl-[ξP][Nva(5-pentanoyl)][Aib]A[Gly(octyl)]L[Aib]L[βAla]-{NH((S)CH(Me)CH2NHC2H4OH)}) | 0.024 | 0.021 | 0.02 | 0.027 |
| CCCCC(=O)CCC[C@H](NC(=O)C1CCCN1C(=O)CCC)C(=O)NC(C)(C)C(=O)NC(C)(C)C(=O)N[C@@H](C)C(=O)N[C@@H](CC(C)C)C(=O)NC(C)(C)C(=O)N[C@@H](CC(C)C)C(=O)NCCC(=O)N[C@@H](C)CNCCO (stereo partly drawn) (Butyryl-[ξP][Nva(5-pentanoyl)][Aib][Aib]AL[Aib]L[βAla]-{NH((S)CH(Me)CH2NHC2H4OH)}) | > 1 | > 1 | > 1 | > 1 |
| CCCCCCCC[C@H](NC(=O)C(C)(C)NC(=O)C(C)(C)NC(=O)[C@H](CCCC(=O)CCCC)NC(=O)C1CCCN1C(=O)CCC)C(=O)N[C@@H](C)C(=O)NC(C)(C)C(=O)N[C@@H](CC(C)C)C(=O)NCCC(=O)N[C@@H](C)CNCCO (stereo partly drawn) (Butyryl-[ξP][Nva(5-pentanoyl)][Aib][Aib][Gly(octyl)]A[Aib]L[βAla]-{NH((S)CH(Me)CH2NHC2H4OH)}) | 0.13 | 0.066 | 0.103 | 0.051 |
| CCCCCCCC[C@H](NC(=O)C(C)(C)NC(=O)C(C)(C)NC(=O)[C@H](CCCC(=O)CCCC)NC(=O)C1CCCN1C(=O)CCC)C(=O)N[C@@H](CC(C)C)C(=O)N[C@@H](C)C(=O)N[C@@H](C)C(=O)NCCC(=O)N[C@@H](C)CNCCO (stereo partly drawn) (Butyryl-[ξP][Nva(5-pentanoyl)][Aib][Aib][Gly(octyl)]LAA[βAla]-{NH((S)CH(Me)CH2NHC2H4OH)}) | > 1 | 0.314 | 0.096 | 0.101 |
| CCCCCCCC[C@H](NC(=O)C(C)(C)NC(=O)C(C)(C)NC(=O)[C@H](CCCC(=O)CCCC)NC(=O)C1CCCN1C(=O)CCC)C(=O)N[C@@H](CC(C)C)C(=O)N[C@@H](C)C(=O)N[C@@H](CC(C)C)C(=O)NCCC(=O)N[C@@H](C)CNCCO (stereo partly drawn) (Butyryl-[ξP][Nva(5-pentanoyl)][Aib][Aib][Gly(octyl)]LAL[βAla]-{NH((S)CH(Me)CH2NHC2H4OH)}) | > 1 | > 1 | 0.266 | > 1 |
| CCCCCCCC[C@H](NC(=O)C(C)(C)NC(=O)C(C)(C)NC(=O)[C@H](CCCC(=O)CCCC)NC(=O)C1CCCN1C(=O)CCC)C(=O)N[C@@H](CC(C)C)C(=O)NC(C)(C)C(=O)N[C@@H](CC(C)C)C(=O)N[C@@H](C)C(=O)N[C@@H](C)CNCCO (stereo partly drawn) (Butyryl-[ξP][Nva(5-pentanoyl)][Aib][Aib][Gly(octyl)]L[Aib]LA-{NH((S)CH(Me)CH2NHC2H4OH)}) | 0.036 | 0.026 | 0.016 | 0.021 |
| CCCCCCCC[C@H](NC(=O)C(C)(C)NC(=O)C(C)(C)NC(=O)[C@H](CCCC(=O)CCCC)NC(=O)C1CCCN1C(=O)CCC)C(=O)N[C@@H](CC(C)C)C(=O)NC(C)(C)C(=O)N[C@@H](CC(C)C)C(=O)NCCC(=O)N[C@@H](C)CN[C@@H](C)C(=O)O (stereo not given in full) (Butyryl-[ξP][Nva(5-pentanoyl)][Aib][Aib][Gly(octyl)]L[Aib]L[βAla]-X3) | > 1 | > 0.5 | 0.291 | > 0.5 |
| CCCCCCCC[C@H](NC(=O)C(C)(C)NC(=O)C(C)(C)NC(=O)[C@H](CCCC(=O)CCCC)NC(=O)C1CCCN1C(=O)CCC)C(=O)N[C@@H](CC(C)C)C(=O)NC(C)(C)C(=O)N[C@@H](CC(C)C)C(=O)NCCC(=O)N[C@@H](C)CNCCO (stereo partly drawn) (Butyryl-[ξP][Nva(5-pentanoyl)][Aib][Aib][Gly(octyl)]L[Aib]L[βAla]-{NH((S)CH(Me)CH2NHC2H4OH)}) | 0.047 | 0.02 | 0.018 | 0.011 |
| CCCCCCCC[C@H](NC(=O)C(C)(C)NC(=O)C(C)(C)NC(=O)[C@H](CCCC(=O)CCCC)NC(=O)[C@H](C)N)C(=O)N[C@@H](CC(C)C)C(=O)NC(C)(C)C(=O)N[C@@H](CC(C)C)C(=O)NCCC(=O)N[C@@H](C)CNCCO (H-A[Nva(5-pentanoyl)][Aib][Aib][Gly(octyl)]L[Aib]L[βAla]-{NH((S)CH(Me)CH2NHC2H4OH)}) | 0.018 | 0.007 | 0.005 | 0.006 |
